Reference: PMC7849011, “Defining the Antimalarial Activity of Cipargamin in Healthy Volunteers Experimentally Infected with Blood-Stage Plasmodium falciparum” (Antimicrobial Agents and Chemotherapy, 2021)
Values joined by “and” are separate entries in the source; they are usually repeats but may differ in a detail not shown here. Identical values can stand only once. Like-named read-outs stand apart in the source and are kept apart here.

Tests used:
[1] = cited from earlier work
[2] = set-up: method as in PMID 25114127; details: cited from earlier work
P. falciparum = experiment: Population PK/PD modelling (Emax model) and dose simulation; assay type: in vivo, Plasmodium falciparum
Procedure: Data preparation, exploration, model definition, model evaluation and simulations were performed in R (version 3.5.1) and the R package IQRtools (version 1.0.6; IntiQuan, Basel, Switzerland) within the software package MonolixSuite 2018R2 (Lixoft, Antony, France). The MIC and the minimum parasiticidal concentration that achieves 90% of maximum effect (MPC90) were derived from the PK/PD model. Simulations were performed to predict the minimum effective single dose, defined as the dose that clears 10^9 parasites/ml. Further detail on PK/PD modeling methods is presented in Text S1.
Pharmacokinetic/Pharmacodynamic modelling methods and results […]
The objectives of the PK/PD modelling anal ysis w ere:
1. To develop a population PK model of cipar gamin in healthy subjects inoculated with blood stage P. falciparum .
2. To char acterize the PK/PD relationship between cipargamin pharmacokinetics and parasite cl ear ance in h eal th subjects inoculated with blood stage P. falcipar um .
3. To determine the minimum inhibitory concent ration (M IC ) of cipargamin .
4. To establish the minimum effective cipar gamin single dose required to kill 10 9
Data preparation, exploration, model definition, model evaluation and simulations were performed in R (version 3.5.1) and the R package IQRtools (version 1.0.6, IntiQuan GmbH, Basel, Switzerland) withi n the software package MonolixSuite2018R2 (Li xoft, Anton y, Fran ce) which implemen ts stochastic approx imation ex pectation-maximisation (SAEM) algorithm for parameter estimation.
One-, two- and three-compartment with different absorption and elimination models were tested. Zero- and first-order absorption models wi th or without lag time were examined. Data below the lower limit of quantitation ( LLO Q; 0.001 µg/ m L) were treated using a left - censoring method. Between subject vari abilit y ( BSV) of the PK parameters was assumed to be normally distributed on log -scale. The random effects across the par ameters within an individual were modelled according to a multivari ate normal distribution (MVN). BS V w as […]
supported by the data.The residual unexplained variabilit y (RUV) was tested using a proportional or combined error models.
Population PK/PD modelling
A sequential PK/PD modelling approach was used in which the empirical Bayes estimates of individual PK parameters were us ed as r egression parameters for the PK/P D model. The observations below the limit of detection (LOD; 10 parasites/mL) were mo del led using a l eft-censoring method. In this anal ysis, the changes in parasitemia over time in the presen ce of antimalarial dru g are ass umed to be a result of the differen ce b etween p ar asite growth rate (k grow ) and the r ate at wh ich parasites are killed b y the drug (k k ill ) with a baseline parasitemia (P L base ) at time t 0 (time of inoculation). Diff erent structural PK/PD models were tested to assess the relationship of cipar gamin plasma concentration on the parasite ki lling rate. The E max model assumed a direct effect of cipargamin plasma concent rations on parasite killing.
The turnover model assumed an indirect effect of cipargamin plasma concentrations on parasite killing due to lag in the PD processes (i.e. the kinetics of dru g-receptor binding). The effect compartment mod el assumed an indirect ef fect of cipar gamin plasm a concentration on parasite killing due to biophase equilibration. This model can be interpreted as the dela y for the drug to reach the site of action in which the cip ar gamin concentrations i n the eff ect […]
compartment drives the d rug eff ect. The p arasite clear an ce model assumed that the observed parasites were a mixture of living and dead parasites and that the cipar gami n plasma […]
PD parameters wer e mod elled assuming a log-normal distribution with exception of ln-transformed b aseline par asite values (parasit emia at time of inoculation) w here a no rmal distribution was assumed. […]
were fixed to 0.2. […]

Plasmodium berghei = tested on: Plasmodium berghei; set-up: method as in PMID 25114127, PMID 25487807; details: human PK data with preclinical PK/PD analysis; cited from earlier work
[3] = 25 P. falciparum patients, single doses of 10, 15, 20 or 30 mg
[4] = P. falciparum patient, day 6, not considered related
[5] = P. vivax patient, day 9, 30 mg per day for 3 days
[6] = plasma concentration, PK/PD model, 10 mg cohort

C[C@H]1Cc2c([nH]c3cc(Cl)c(F)cc23)[C@@]2(N1)C(=O)Nc1ccc(Cl)cc12 [cipargamin]
AUC0–∞ ([1]; 10 mg, patients with naturally acquired malaria): 6400 ng·h/mL
LFT abnormalities ([1]; 30 mg per day for 3 days, 11 P. falciparum and 10 P. vivax patients): three subjects displayed LFT abnormalities
patients with increased ALT [1, 3]: only one patient displayed increased ALT
patients with increased blood alkaline phosphatase [1, 3]: 40%
subjects with hyperbilirubinemia [1, 3]: 20%
increased ALT [1, 4]: 192 U/liter
increased AST [1, 4]: 121 U/liter
peak ALT [1, 5]: 241 U/liter
peak AST [1, 5]: 106 U/liter
peak ALT ([1]; other P. vivax patient, day 6): 78 U/liter
peak AST ([1]; other P. vivax patient, day 6): 63 U/liter
patients with asymptomatic transient ALT elevations (>3 × ULN) ([1]; single 75-mg dose, cohort of 11 P. falciparum patients, ref unpublished, NCT01860989): four patients had asymptomatic transient ALT elevations
AUC0–∞ ([2]; 10 mg, healthy subjects, first-in-human study): 1860 ng·h/mL
LFT abnormalities ([2]; 72 healthy subjects, single doses up to 300 mg or up to 150 mg daily for 3 days): only one subject displayed mild LFT abnormalities
tolerability in humans ([2]; single dose up to 300 mg or up to 150 mg daily for 3 days): tolerated
PRR48 actual, median (95% CI) (P. falciparum; PK/PD model, 10 mg): 2.59 (1.89 – 3.32) log10 unit
Time above MIC, median (95% CI) (P. falciparum; PK/PD model, 10 mg): 1.96 (1.59 –2.44) days
Time above MPC90, median (95% CI) (P. falciparum; PK/PD model, 10 mg): 0.89 (0.63–1.26) days
Emax, maximum parasite killing rate (P. falciparum; final PK/PD Emax model, Hill coefficient fixed to 5): 0.23 h⁻¹
MIC, median (95% CI) (P. falciparum; [6]): 11.6 (9.9 – 13.3) ng/ml and 11.6 ng/ml
MPC90, minimum parasiticidal concentration that achieves 90% of maximum effect, median (95% CI) (P. falciparum; [6]): 23.5 (19.9 – 27.4) ng/ml and 23.5 ng/ml
minimum effective single dose predicted to clear 10^9 parasites/ml (P. falciparum; simulation in patients with malaria, 500 patients per dose, up to day 28): 95 mg
daily dose predicted to be sufficient to clear parasitemia in malaria patients (Plasmodium berghei): 30 mg
